# Measured values published in patent US6703412B1 (priority 2002, dated 2004).
# Experiments:
# sleeplessness [1] = assay: Example 1: melatonin capsules for subjects having difficulty falling asleep at normal bedtime; assay type: in vivo, human; settings: 1.5 mg capsules after one hour of trying to fall asleep
# sleeplessness [2] = assay: Example 2: melatonin capsules for subjects who awake midway during normal sleep period; assay type: in vivo, human; settings: 1.5 mg capsules after 15 minutes of trying to fall back asleep
# Source text: Subjects are those who awake at about midway during their normal sleep period and once awake have trouble falling back asleep.
# [3] = 2-100 mg doses, man; cited from earlier work
# mice = mice given 800 mg/kg; cited from earlier work
structure (smiles),measurement,setting,value
"COc1ccc2[nH]cc(CCNC(C)=O)c2c1 [Melatonin, N-acetyl-5-methyoxytryptamine]",sleep maintenance,sleeplessness [1],sleep through the night
same,state on awakening,sleeplessness [1],"alert, without any decrement in faculties"
same,time to fall asleep,sleeplessness [1],≤ 20 min
same,sleep maintenance,sleeplessness [2],sleep through the remainder of the night
same,state on awakening,sleeplessness [2],"refreshed, and not sleepy or drowsy"
same,time to fall asleep,sleeplessness [2],≤ 20 min
same,time until awakening,sleeplessness [2],3 to 4 h
same,biological half-life,[3],32-48 minutes
same,death,mice,failed to produce death
